System: HeLa
Assay: Cytotoxicity against human HeLa cells after 48 hrs by MTT assay
Format: functional, cell-based

CN(CCCBr)c1ccccc1
IC50: > 125 µM

Oc1ccc(OCCNc2ccccc2)cc1
IC50: 30 µM

CN(CCOc1ccc(O)cc1)c1ccccc1
IC50: 18 µM

CCN(CCOc1ccc(O)cc1)c1ccccc1
IC50: 23 µM

Reference: ChEMBL document CHEMBL2380239, “Novel ROS-activated agents utilize a tethered amine to selectively target acute myeloid leukemia” (Bioorg Med Chem Lett, 2013)
